Experimental data published in patent EP0345068B1, “Agonist of gamma-aminobutyric acid” (JOHN WYETH & BROTHER LIMITED, priority 1988, dated 1989).

Columns and labels:
GABAA receptors = assay: Procedure 2: enhancement of [3H]-flunitrazepam binding in rat cortex membranes; conditions: for Enhancement of [3H]-flunitrazepam binding: 20nM [3H]-flunitrazepam, rat cortex membranes, 30 minutes at 37°C
Protocol: (§1) The following test procedures were used to measure activity at (a) GABA autoreceptors and GABAB receptors by inhibition of potassium-evoked GABA and noradrenalin release from rat cortex in vitro (Procedure 1); and (b) GABAA receptors by enhancement of [3H]-flunitrazepam binding in rat cortex in vitro (Procedure 2):
Cortices from six or more rats are excised and homogenised in 50 volumes (volume/weight) 50mM Tris buffer (pH 7.4 at 37°C) using a Polytron homogeniser on speed 5 for 30 seconds. Tissue is kept at O°C throughout the procedure. The homogenate is centrifuged at 40,000 x g for 15 minutes and the pellet resuspended (Polytron 5, 10 sec.) in 50 volumes (original weight) of Tris buffer. Centrifugation and resuspension is repeated followed by incubation at 37°C for 10 minutes. The homogenate is centrifuged (40,000 x g, 15 min), resuspended in 10 volumes (original weight) Tris and stored below -20°C for more than 24 hours.
On the day of the experiment, membranes are thawed at 37°C and made up to 20 volumes (original weight) with Tris Krebs (20mM, see below). The membranes are homogenised (Polytron 5, 30 sec), incubated at 37°C for 15 minutes and centrifuged at 20,000 x g for 10 minutes. This wash and resuspension is repeated two more times with the final pellet resuspended in 100 volumes (original weight) Tris Krebs ready for use.
The test compound (50»l) and 20nM (final concentration) [³H]-flunitrazepam (50»l) are dispensed in triplicate. The reaction is started by the addition of 900»l of membrane preparation. After a 30 minute incubation at 37°C the reaction is stopped by filtration through Whatman GF/B filters under reduced pressure using a Brandell Cell Harvester, with two 7.5 ml filter washings. The radioactivity retained on the filters is measured by liquid scintillation counting. Tris Krebs composition: NaCl-136mM, KCl-5mM, MgSO₄-2mM, KH₂PO₄-2mM, CaCl₂-2mM, Tris buffer (pH 7.4 at 37°C)-20mM, ascorbic acid-lmM, disodium ethylenediamine tetraacetic acid-lmM.
Calculations: Results are calculated as follows: [formula]

GABA autoreceptor [1] = assay: Procedure 1: inhibition of potassium-evoked [3H]-GABA release from rat cerebral cortex slices; format: cell-based; conditions: for GABA autoreceptor pD2 values: inhibition of 25 mM potassium-evoked [3H]-GABA release, rat cortex slices in vitro
Protocol: as §1
(§2) Slices (0.25 x 0.25 x 2.0 mm) of rat cerebral cortex are prepared using a McIlwain tissue chopper. The slices are incubated in Krebs-Henseleit solution containing [³H]-GABA (10⁻⁷M) and [¹⁴C]-noradrenaline (10⁻⁷M) in the presence of amino-oxyacetic acid (AOAA) (10⁻⁵M), pargyline (10⁻⁶M) and ascorbic acid (10⁻⁴M), for 20 minutes at 37°C, rinsed with 5 ml aliquots of Krebs-Henseleit solution and transferred to 10 superfusion chambers (volume 300»l). The slices are continuously superfused with Krebs-Henseleit solution (0.4 ml min⁻¹) containing AOAA (10⁻⁵M) and fractions of the superfusate collected every 4 minutes. Transmitter release is induced by 4 minute exposure to a Krebs-Henseleit solution containing 25 mM potassium (with concomitant reduction in sodium to maintain osmolarity) after 68 (S₁) and 92 (S₂) minutes of superfusion. The compound under study is added to the superfusing medium 20 minutes prior to the second potassium stimulation. The residual radioactivity in the slices at the end of the experiment together with that in the superfusate fractions is measured by liquid scintillation counting using a dual label programme for tritium and carbon-14. Calculations: The amount of radioactivity (either tritium or carbon-14) in each fraction is expressed as a percentage of the respective total radioactivity in the tissue at the start of the respective collection period. The amount of radioactivity released above basal by the increased potassium is calculated and the ratio S2/S1 obtained. The S2/S1 ratio from drug-treated slices is expressed as a percentage of the control S2/S1 ratio.

GABAB receptors = molecular target: T1, GABAB receptors (Rattus norvegicus, UniProt Q9Z0U4); assay: Procedure 1: inhibition of potassium-evoked [14C]-noradrenaline release from rat cerebral cortex slices; format: cell-based; conditions: for inhibition at 10 µM: 10^-5M, potassium-evoked noradrenaline release, rat cortex slices, failure to inhibit indicates no GABAB agonist activity
T1 construct: Slices (0.25 x 0.25 x 2.0 mm) of rat cerebral cortex; from tissue; host or cells: rat cerebral cortex slices
T1 sequence (Q9Z0U4 20-960): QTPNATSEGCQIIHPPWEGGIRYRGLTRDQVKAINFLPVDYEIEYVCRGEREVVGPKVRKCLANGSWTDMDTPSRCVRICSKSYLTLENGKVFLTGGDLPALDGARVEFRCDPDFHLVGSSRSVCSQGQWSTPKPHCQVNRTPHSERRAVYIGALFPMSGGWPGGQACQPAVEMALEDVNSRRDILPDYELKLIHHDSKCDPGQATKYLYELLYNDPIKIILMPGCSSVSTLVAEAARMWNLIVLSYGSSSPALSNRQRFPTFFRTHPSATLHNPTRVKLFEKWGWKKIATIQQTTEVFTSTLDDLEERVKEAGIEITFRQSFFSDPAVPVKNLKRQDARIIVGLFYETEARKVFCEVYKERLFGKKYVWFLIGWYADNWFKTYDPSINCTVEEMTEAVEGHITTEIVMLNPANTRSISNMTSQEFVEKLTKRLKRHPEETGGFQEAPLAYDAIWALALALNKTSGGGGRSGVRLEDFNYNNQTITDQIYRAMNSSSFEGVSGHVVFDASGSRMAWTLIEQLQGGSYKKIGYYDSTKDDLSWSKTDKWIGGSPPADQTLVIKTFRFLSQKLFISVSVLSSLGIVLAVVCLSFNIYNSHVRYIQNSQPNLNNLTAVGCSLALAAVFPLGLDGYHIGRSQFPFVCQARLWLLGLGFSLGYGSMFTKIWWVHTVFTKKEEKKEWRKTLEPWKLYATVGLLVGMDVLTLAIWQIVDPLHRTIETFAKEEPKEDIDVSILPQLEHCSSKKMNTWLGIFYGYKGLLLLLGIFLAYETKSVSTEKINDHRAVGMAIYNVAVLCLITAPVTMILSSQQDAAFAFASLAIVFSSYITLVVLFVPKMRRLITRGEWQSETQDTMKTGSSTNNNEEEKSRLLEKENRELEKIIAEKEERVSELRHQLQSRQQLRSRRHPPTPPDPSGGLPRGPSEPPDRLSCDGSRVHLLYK
T1 sequence (O88871 41-940 partner): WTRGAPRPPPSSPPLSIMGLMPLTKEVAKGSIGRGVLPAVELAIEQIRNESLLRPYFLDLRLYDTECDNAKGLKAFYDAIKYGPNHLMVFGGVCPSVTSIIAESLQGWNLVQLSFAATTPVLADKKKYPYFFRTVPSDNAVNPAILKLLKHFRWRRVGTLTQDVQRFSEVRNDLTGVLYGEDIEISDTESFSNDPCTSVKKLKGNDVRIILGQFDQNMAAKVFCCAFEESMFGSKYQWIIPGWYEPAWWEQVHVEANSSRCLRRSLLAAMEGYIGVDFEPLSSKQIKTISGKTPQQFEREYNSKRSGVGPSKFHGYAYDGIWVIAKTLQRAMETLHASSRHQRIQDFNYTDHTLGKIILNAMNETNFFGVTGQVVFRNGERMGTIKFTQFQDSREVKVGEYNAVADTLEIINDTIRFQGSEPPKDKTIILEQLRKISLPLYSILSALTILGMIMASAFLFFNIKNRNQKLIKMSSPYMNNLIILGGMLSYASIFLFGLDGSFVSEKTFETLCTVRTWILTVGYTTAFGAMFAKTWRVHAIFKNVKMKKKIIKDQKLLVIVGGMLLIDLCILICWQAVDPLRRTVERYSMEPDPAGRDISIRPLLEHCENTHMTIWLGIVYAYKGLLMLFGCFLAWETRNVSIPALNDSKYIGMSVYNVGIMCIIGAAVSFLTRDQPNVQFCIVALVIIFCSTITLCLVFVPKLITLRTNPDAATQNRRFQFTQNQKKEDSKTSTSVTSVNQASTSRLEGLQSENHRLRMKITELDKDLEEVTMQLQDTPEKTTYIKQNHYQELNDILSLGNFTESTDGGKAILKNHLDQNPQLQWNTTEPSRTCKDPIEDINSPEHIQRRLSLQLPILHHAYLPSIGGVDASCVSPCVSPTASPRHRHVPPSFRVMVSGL
Protocol: as §1
as §2, with “ratio. For compounds achieving inhibition of 30% or more pD₂ values are calculated from plots of inhibition of release versus concentration of drug.” for “ratio.”

[2] = tested on: postsynaptic GABAA receptors; assay: Procedure 3: drug ejected onto nigral neurones in vivo, test of postsynaptic GABAA receptor effect; set-up: species or system rat; conditions: anaesthetized male albino rats; ejected iontophoretically in the vicinity of nigral neurones
Protocol: (§3) Experiments were performed on male albino rats (240-280g) lightly anaesthetized with urethane (1.2-1.4 g/kg i.p.) or Halothane (0.7-1.0% in 0₂). The animal's temperature was maintained between 36-38°C via a thermostatically controlled heating blanket.
(§4) The caudate nucleus and substantia nigra were approached dorsally after exposing the overlying cortex. Pulsations of the brain and cerebral oedema were minimised by allowing cerebral spinal fluid to leak from a cisternal puncture. The exposed cortex was bathed in warm liquid paraffin throughout the experiment. A coaxial bipolar stimulating electrode (tip separation 0.25mm) was positioned stereotaxically in the caudate nucleus such that the tip of the electrode corresponded to the area delineated by the co-ordinates L 2.5; A 8.5-95; D 5. (Paxinos and Watson 1986). […]
(§5) Extracellular recordings were obtained from single neurones in the ipsilateral substantia nigra via either the centre barrel (3.5M NaCl) of a multibarrelled microelectrode or a single barrelled electrode (3.5M NaCl), attached to but protruding 10-20 » beyond, a multibarrelled electrode. […] Effects of agonist drugs on the GABA autoreceptor could be measured as an attenuation of the synaptic inhibition evoked by stimulation of the caudate. […]

GABA autoreceptor [3] = assay: Procedure 3: effect on a GABA synapse in vivo, caudate-evoked synaptic inhibition of nigral neurones, iontophoretic ejection; set-up: species or system rat; conditions: anaesthetized male albino rats; ejected iontophoretically in the vicinity of nigral neurones; action reversible
Protocol: The compounds were also tested for their effect on a GABA synapse in vivo in the following procedure:
as §3, §4, §5

Enhancement of [3H]-flunitrazepam binding (GABAA receptors)	inhibition at 10 µM (GABAB receptors) [%]	activity at GABAA sites in vitro (GABAA receptors; in vitro)	activity at GABAB sites in vitro (GABAB receptors; in vitro)	Structure (SMILES)	GABA autoreceptor pD2 values (GABA autoreceptor [1])	effect on postsynaptic GABAA receptors [2]	synaptically-evoked, GABA-mediated inhibition in the substantia nigra (GABA autoreceptor [3])	activity at the GABA autoreceptor (GABA autoreceptor [1]; in vitro)
0	0	–	–	O=C(O)CCCN(Cc1ccc(Cl)c(Cl)c1)Cc1ccc(Cl)c(Cl)c1 [Example 10, 4-[N,N-Bis-(3,4-dichlorobenzyl)amino]butyric acid]	7.5	–	–	–
0	20	–	–	O=C(O)CCCN(Cc1ccccc1)Cc1ccccc1 [Example 5, 4-(N,N-Dibenzylamino)butyric acid]	7.1	without affecting	almost abolished	–
0	10	–	–	Cc1ccc(CN(CCCC(=O)O)Cc2ccc(C)cc2)cc1 [Example 8, 4-[N,N-Bis-(4-methylbenzyl)amino]butyric acid]	7.4	–	–	–
0	0	–	–	COc1ccc(CN(CCCC(N)=O)Cc2ccc(OC)cc2)cc1 [Example 12, 4-[N,N-Bis-(4-Methoxybenzyl)amino]butyramide]	6.0	–	–	–
0	> 20	–	–	NC(=O)CCCN(Cc1ccccc1)Cc1ccccc1 [Example 4, 4-(N,N-Dibenzylamino)butyramide]	7.0	–	–	–
0	0	–	–	O=C(O)CCCN(Cc1ccc(Cl)cc1)Cc1ccc(Cl)cc1 [Example 2, 4-[N,N-Bis-(4-Chlorobenzyl)amino]butyric acid]	7.0	–	–	–
0	0	–	–	NC(=O)CCCN(Cc1ccc(Cl)cc1)Cc1ccc(Cl)cc1 [Example 3, 4-[N,N-Bis-(4-chlorobenzyl)amino]butyramide]	6.6	–	–	–
0	0	–	–	CN(CCCC(N)=O)Cc1ccc(Cl)cc1 [Example 24, 4-[(N-(p-Chlorobenzyl)-N-methyl)amino]butyramide]	7.5	–	–	–
–	–	little or no activity	little or no activity	CCCC/N=C(/c1cc(Cl)ccc1O)c1ccccc1Cl [fengabine, reference compound]	8.0	–	–	–
–	–	–	–	NC(=O)CCC/N=C(\c1ccc(Cl)cc1)c1cc(F)ccc1O [Progabide, reference compound]	–	–	–	active
